Results: patent US20190160054A1, “PHARMACEUTICAL COMBINATION OF NINTEDANIB, TRIFLURIDINE AND TIPIRACIL FOR TREATING COLORECTAL CANCER” (Boehringer Ingelheim International GmbH, priority 2016, published 2019)

What was measured:
[1] = system: metastatic colorectal cancer; experiment: phase I/II study of the combination of Compound A1 with Compound Mixture B1 (UMIN000017114); assay type: in vivo, patients
Description: The key eligibility criteria were patients with metastatic colorectal cancer refractory or intolerant to fluoropyrimidine, irinotecan, oxaliplatin, anti-angiogenesis inhibitor and anti-EGFR antibody (if wild-type RAS) and without prior regorafenib and Compound Mixture B1 treatment; at least one measurable lesion; and ECOG performance status of 0 or 1.
Secondary endpoints included overall survival (OS), PFS, objective response rate, disease control rate, safety, and pharmacokinetic parameters.
Key Inclusion Criteria: • 1) Written informed consent • 2) >=20 years old • 3) Histologically or cytologically proven adenocarcinoma of colon or rectum (except appendiceal cancer), and KRAS test were carried out. • 4) Prior chemotherapy was discontinued due to disease progression, or an adverse event. • 5) No prior treatment with Regorafenib • 6) ECOG Performance Status of 0 or 1 • 7) Adequate oral intake • 8) With measurable disease according to RECIST • 9) Adequate organ function within 14 days prior to enrollment. • a. Hemoglobin>=9.0 g/d • b. Absolute neutrophil count>=1,500/mm3 • c. Platelet count>=100,000/mm3 • d with no liver metastasis, AST/ALT<=ULNx1.5 and T-Bil<=UNL with liver metastasis, AST/ALT<=ULNx2.5 and T-Bil<=UNL • e Serum creatinine<=1.5 mg/dL • 10) Women of childbearing potential must have a negative pregnancy test within 7 days prior to enrollment. […]

SKOV3 = experiment: in vivo anti-tumor efficacy, ovarian xenograft model SKOV3; details: SKOV3, 50 mg/kg/d
HT-29 = experiment: in vivo anti-tumor efficacy, colorectal xenograft model HT-29
FaDu = experiment: in vivo anti-tumor efficacy, head and neck xenograft model FaDu; details: 100 mg/kg/d
Rip-Tag = experiment: in vivo anti-tumor efficacy, pancreas murine transgenic model Rip-Tag
PAC-120 = experiment: in vivo anti-tumor efficacy, hormone-dependent prostate xenograft model PAC-120; details: PAC-120, 100 mg/kg/d
NCI-H460 = experiment: in vivo anti-tumor efficacy, non-small-cell lung xenograft model NCI-H460; details: NCI-H460, 25 mg/kg/d
Calu-6 = experiment: in vivo anti-tumor efficacy, non-small-cell lung xenograft model Calu-6; details: Calu-6, 50 mg/kg/d
GS-9L = experiment: in vivo anti-tumor efficacy, glioblastoma GS-9L syngeneic rat tumor model; details: 50 mg/kg/d
Caki-1 = experiment: in vivo anti-tumor efficacy, renal xenograft model Caki-1; details: Caki-1, 100 mg/kg/d

SMILES: COC(=O)c1ccc2c(c1)NC(=O)/C2=C(\Nc1ccc(N(C)C(=O)CN2CCN(C)CC2)cc1)c1ccccc1 [Compound A, 3-Z-[1-(4-(N-((4-methyl-piperazin-1-yl)-methylcarbonyl)-N-methyl-amino)-anilino)-1-phenyl-methylene]-6-methoxycarbonyl-2-indolinone]
- Two dose reduction of nintedanib, Reason ([1]; All enrolled patients, N = 35): DILI (cycle 1, cycle 4)
- patients requiring at least one dose reduction of nintedanib ([1]; all enrolled 35 patients, combination treatment): Five
- Efficacy T/C (SKOV3): T/C 19% @ 50 mg/kg/d
- Efficacy T/C (HT-29; HT-29 colorectal model, 100 mg/kg/d, T/C = reduction of tumor size in % of the control): T/C 16% @ 100 mg/kg/d
- Efficacy (HT-29; HT-29 large tumors): tumor volume reduction
- Efficacy T/C (FaDu): T/C 11% @ 100 mg/kg/d
- Efficacy (Rip-Tag): interference with tumor
- Efficacy T/C (PAC-120): T/C 34% @ 100 mg/kg/d
- Efficacy T/C (NCI-H460): T/C 54% @ 25 mg/kg/d
- Efficacy T/C (Calu-6): T/C 24% @ 50 mg/kg/d
- Efficacy T/C (GS-9L): T/C 32% @ 50 mg/kg/d
- Efficacy T/C (Caki-1): T/C 13% @ 100 mg/kg/d
